The subject of one assay is release of LH. The assay is described as follows: Release of LH in rats after sc injection. To be noted: for release of LH: in our assays; for release of LH compared with LHRH: sc injection, dose and time as stated in the source. The format is in vivo. From the text:
(§1) The data on the release of LH and FSH in rats by modifications of LHRH with one structural change are in Table II.
(§2) Exclusive of the salmon-LHRH, only one of the six decapeptides with two structural changes had significant activity.

Assay [1] relates to release of FSH. The assay is described as follows: Release of FSH in rats after sc injection. The format is in vivo. To be noted: for FSH % change: LHRH = 100; for release of FSH: in our assays.
Source text: as §1, §2

Assay [2] relates to rat anterior pituitary cells in primary culture. The conditions noted are these: cited from earlier work; for activities to release LH compared with LHRH (Table I): fraction of the activities of LHRH or words; for activity (potency) to release LH relative to P/O LHRH: in vitro, rat pituitary cells, Sherwood et al. (a), Miyamoto et al. (b).
A further assay has as its system rat pituitary cells. To be noted: cited from earlier work; for activities to release FSH compared with LHRH (Table I): fraction of the activities of LHRH or words.
The subject of assay [3] is release of FSH. Put plainly: Release of FSH in rats after sc injection. The format is in vivo. The conditions noted are these: dose and time as stated in the source.
For assay [4] the following is noted: relative to LHRH; cited from earlier work.
For assay [5] the following is noted: relative to LHRH; cited from earlier work. The source holds these as a separate data set.
[6] abbreviates: 30 min. after sc injection, 1000 ng, LHRH = 100.
Setting [7] is: 60 min. after sc injection, 3000 ng, LHRH = 100.
The mark [8] stands for this setting: release 30 min. after sc injection, dosage of peptide 100 ng.
The mark [9] stands for this setting: release 30 min. after sc injection, dosage of peptide 1000 ng.
The mark [10] stands for this setting: release 60 min. after sc injection, dosage of peptide 300 ng.
Setting [11] is: release 60 min. after sc injection, dosage of peptide 3000 ng.
Where [12] appears, read: 60 min. after sc injection, 3000 ng.
The mark [13] stands for this setting: 15 min. after sc injection, 100 ng, experiment marked *.
Where [14] appears, read: 15 min. after sc injection, 1000 ng, experiment marked *.
Where [15] appears, read: release 15 min. after sc injection, dosage of peptide 50 ng.
Where [16] appears, read: release 15 min. after sc injection, dosage of peptide 100 ng.
Setting [17] is: release 15 min. after sc injection, dosage of peptide 1000 ng.
Setting [18] is: release 30 min. after sc injection, dosage of peptide 50 ng.

Values joined by “and” are separate entries in the source; they are usually repeats but may differ in a detail not shown here. Equal entries are not always repeated. “Also recorded” adds a separate entry of the source. Non-standard residues stand in square brackets, D forms with d. Residues, ends and D or L forms follow the SMILES beside them. pGlu = O=C1CC[C@@H](C(=O)O)N1

In the case of `NC(=O)CNC(=O)[C@@H]1CCCN1C(=O)[C@H](Cc1ccc(O)cc1)NC(=O)[C@H](Cc1c[nH]c2ccccc12)NC(=O)CNC(=O)[C@H](Cc1c[nH]cn1)NC(=O)[C@H](CO)NC(=O)[C@H](Cc1c[nH]c2ccccc12)NC(=O)[C@H](Cc1c[nH]cn1)NC(=O)[C@@H]1CCC(=O)N1` [[His^5 Trp^7 Tyr^8] (Chicken II), pGlu--His--Trp--Ser--His--Gly--Trp--Tyr--Pro--Gly--NH2, reference compound] ([pGlu]HWSHGWYPG-NH2), the LH % change in the assay on release of LH (30 min. after sc injection, 100 ng, LHRH = 100) worked out at 18%; in the assay with release of LH (setting [6]) it was 39%; in the assay with release of LH (60 min. after sc injection, 300 ng, LHRH = 100), 32%; in the assay with release of LH (setting [7]), 10%. Besides, the results for the “release of LH” value in the assay with release of LH (dose level 100 ng) and in the assay with release of LH (dose level 1000 ng) were 18% and 30%, respectively. Also, the LH was 2 ng/mL in the assay on release of LH (setting [8]), 14 ng/mL in the assay on release of LH (setting [9]), 3.5 ng/mL in the assay with release of LH (setting [10]) and 8.4 ng/mL with release of LH (setting [11]). Moreover, the FSH % change in the assay on release of FSH [1] (30 min. after sc injection, 100 ng) was found to be 62%; in the assay on release of FSH [1] (60 min. after sc injection, 300 ng), 58%; in the assay with release of FSH [1] (setting [12]), 55%. The “release of FSH” value is on record as 62% in the assay on release of FSH [1] (dose level 100 ng) and 86% in the assay with release of FSH [1] (dose level 1000 ng). Further, the FSH stood at 305 ng/mL with release of FSH [1] (setting [8]), 596 ng/mL with release of FSH [1] (setting [9]), 344 ng/mL in the assay on release of FSH [1] (setting [10]) and 644 ng/mL with release of FSH [1] (setting [11]). Besides, in assay [2], the “activities to release LH compared with LHRH (Table I)” value is on record as “about 1/3”. In addition, the “activity (potency) to release LH relative to P/O LHRH” value in assay [2] is on record as 32%. The “activities to release FSH compared with LHRH (Table I)” value with rat pituitary cells is “about 1/3”. Moreover, the “activity to release FSH relative to P/O LHRH” value in the assay with rat pituitary cells (in vitro, rat pituitary cells, Miyamoto et al. (b)) was 41%.
Turning to `CC(C)C[C@H](NC(=O)CNC(=O)[C@H](Cc1c[nH]cn1)NC(=O)[C@H](CO)NC(=O)[C@H](Cc1c[nH]c2ccccc12)NC(=O)[C@H](Cc1c[nH]cn1)NC(=O)[C@@H]1CCC(=O)N1)C(=O)N[C@@H](CCCNC(=N)N)C(=O)N1CCC[C@H]1C(=O)NCC(N)=O` [[His^5]--LHRH, p-Glu His Trp Ser His Gly Leu Arg Pro Gly-NH2], the LH is 14 ng/mL in the assay on release of LH (setting [10]); 142 ± 29 ng/mL and 142 ng/mL with release of LH (setting [11]). Further, the “release of LH compared with LHRH” value with release of LH is “as active as LHRH at two dose levels; also recorded: equivalent to LHRH in the release of LH”. The compound further registered an FSH % change in the assay on release of FSH [1] (setting [12]) of 229%. Moreover, the FSH in the assay on release of FSH [1] (setting [10]) came to 652 ng/mL; in the assay on release of FSH [1] (setting [11]) it was 2684 ng/mL. Further, in the assay on release of FSH [3], the “release of FSH compared with LHRH” value is listed as “twice as active as LHRH at the high dosage; also recorded: two times as effective in the release of FSH at the higher dose level”.
For [3(2-Nal)^3 ]-LHRH, the “agonist activity in vitro, as active as LHRH” value (from here on “agonist activity in vitro”) in assay [4] is reported as 200%.
Consider `CC(C)C[C@H](NC(=O)[C@H](Cc1c[nH]c2ccccc12)NC(=O)CNC(=O)[C@H](Cc1ccc(O)cc1)NC(=O)[C@H](CO)NC(=O)[C@H](Cc1c[nH]c2ccccc12)NC(=O)[C@H](Cc1c[nH]cn1)NC(=O)[C@@H]1CCC(=O)N1)C(=O)N1CCC[C@H]1C(=O)NCC(N)=O` [[Trp^7 Leu^8]--LHRH, pGlu--His--Trp--Ser--Tyr--Gly--Trp--Leu--Pro--Gly--NH2, reference compound] ([pGlu]HWSYGWLPG-NH2), for which the LH % change in the assay on release of LH (setting [7]) came out at 3.0%. Moreover, the LH in the assay on release of LH (setting [11]) is 2.5 ng/mL. The same compound had an FSH % change with release of FSH [1] (setting [12]) of 22%. Further, in the assay with release of FSH [1] (setting [11]), the FSH came to 258 ng/mL. For the same compound, in assay [2], the “activities to release LH compared with LHRH (Table I)” value is given as “extremely low activities” and the “activity (potency) to release LH relative to P/O LHRH” value is recorded as 2-3%. For the same compound, the “activities to release FSH compared with LHRH (Table I)” value in the assay with rat pituitary cells was “extremely low activities”.
Turning to “[Ala^9 ]-LHRH (QHWSYGLRAG; Gonadoliberin-1; UniProt P01148 24-33, looked up, variant P9A) [literature agonist analog of LHRH]”, in assay [4], the “agonist activity in vitro” value was 65%.
In the case of `N=C(N)NCCC[C@H](NC(=O)[C@H](Cc1c[nH]c2ccccc12)NC(=O)CNC(=O)[C@H](Cc1c[nH]cn1)NC(=O)[C@H](CO)NC(=O)[C@H](Cc1c[nH]c2ccccc12)NC(=O)[C@H](Cc1c[nH]cn1)NC(=O)[C@@H]1CCC(=O)N1)C(=O)N1CCC[C@H]1C(=O)NCC(N)=O` [[His^5 Trp^7]--LHRH, p-Glu His Trp Ser His Gly Trp Arg Pro Gly-NH2] ([pGlu]HWSHGWRPG-NH2), the LH % change turned out to be 188% with release of LH (15 min. after sc injection, 50 ng, LHRH = 100); 59% with release of LH (15 min. after sc injection, 1000 ng, experiment marked *, LHRH* = 100); 67% in the assay with release of LH (30 min. after sc injection, 50 ng, LHRH = 100); 40% in the assay with release of LH (setting [6]). Also, the LH with release of LH (setting [13]) was 13 ng/mL; in the assay with release of LH (setting [14]) it was 23 ng/mL; with release of LH (setting [15]), 30 ± 3 ng/mL; in the assay with release of LH (setting [16]) it was 30 ng/mL; in the assay with release of LH (setting [17]), 39 ng/mL and 78 ng/mL; with release of LH (setting [18]), 12 ng/mL. For the same compound, the LH in the assay with release of LH (setting [9]) stood at 51 ng/mL; with release of LH (setting [10]) it was 26.0 ng/mL; with release of LH (setting [11]), 138 ng/mL. Also, the “release of LH compared with LHRH” value with release of LH was “as active as LHRH; also recorded: significantly positive, but less than that at the higher dosage; also recorded: released significantly more LH and FSH than did LHRH at a dosage of 50 ng; also recorded: equivalent to that released by the same dosage of LHRH; also recorded: significantly positive, but lower than that released at the higher dose level; also recorded: both peptides had comparable activities”. In the assay on release of FSH [1] (15 min. after sc injection, 50 ng), this compound had an FSH % change of 121%. Besides, the FSH was 346 ng/mL with release of FSH [1] (setting [13]); 456 ng/mL with release of FSH [1] (setting [14]); 663 ng/mL in the assay with release of FSH [1] (setting [15]); 502 ng/mL in the assay with release of FSH [1] (setting [16]); 562 ng/mL and 429 ng/mL in the assay with release of FSH [1] (setting [17]); 387 ng/mL in the assay with release of FSH [1] (setting [18]). Also, the FSH in the assay on release of FSH [1] (setting [9]) stood at 857 ng/mL; in the assay on release of FSH [1] (setting [10]) it was 624 ng/mL; in the assay with release of FSH [1] (setting [11]) it was 1448 ng/mL. In the assay on release of FSH [3], the “release of FSH compared with LHRH” value is “as active as LHRH; also recorded: equivalent to that from LH; also recorded: released significantly more LH and FSH than did LHRH at a dosage of 50 ng; also recorded: equivalent to that released by the same dosage of LHRH; also recorded: higher than that for LH; also recorded: both peptides had comparable activities”.
In the case of `N=C(N)NCCC[C@H](NC(=O)[C@H](Cc1c[nH]c2ccccc12)NC(=O)CNC(=O)[C@H](Cc1ccc(O)cc1)NC(=O)[C@H](CO)NC(=O)[C@H](Cc1c[nH]c2ccccc12)NC(=O)[C@H](Cc1c[nH]cn1)NC(=O)[C@@H]1CCC(=O)N1)C(=O)N1CCC[C@H]1C(=O)NCC(N)=O` [[Trp^7]--LHRH, p-Glu His Trp Ser Tyr Gly Trp Arg Pro Gly-NH2], the LH in the assay with release of LH (setting [10]) is 14.5 ng/mL; in the assay with release of LH (setting [11]) it was 115 ± 19 ng/mL and 115 ng/mL. The “release of LH compared with LHRH” value with release of LH is “as active as LHRH at two dose levels; also recorded: equivalent to LHRH in the release of both LH and FSH”. The figures for the FSH with release of FSH [1] (setting [10]) and in the assay on release of FSH [1] (setting [11]) were 543 ng/mL and 1259 ng/mL, respectively. In addition, the “release of FSH compared with LHRH” value in the assay with release of FSH [3] was “as active as LHRH; also recorded: equivalent to LHRH in the release of both LH and FSH”. In addition, the “agonist activity in vivo” value in assay [5] was 80%.
For [N-MeLeu^7 ]-LHRH, the “agonist activity in vitro” value in assay [4] is 100%.
As to “[Phe^5 ]-LHRH (QHWSFGLRPG; Gonadoliberin-1; UniProt P01148 24-33, looked up, variant Y5F) [literature agonist analog of LHRH, reference compound]”, the “agonist activity in vivo” value in assay [5] is given as 64%.

(Values after patent publication US4721775A, “Effective peptides related to the luteinizing hormone releasing hormone from L-amino acids” (Board of Regents, The University of Texas System, priority 1985, dated 1988).)
